US20230183228A1, “SUBSTITUTED PYRAZOLYL COMPOUNDS AND METHODS OF USE THEREOF” (Chinook Therapeutics Canada, Inc., priority 2020, published 2023)
Marks after values point to notes of the source that are not given here.

How the values were obtained:
PH1 patients = settings: cited from earlier work
[1] = biological target: T1, human recombinant C-terminal His-tagged LDHA (Homo sapiens, UniProt P00338); test: Human LDHA enzyme assay; assay type: biochemical; settings: 50 μM pyruvate, 50 μM NADH, no HSA
T1 construct: His (C)
Protocol: (§1) Compounds were dissolved in DMSO and preincubated with human recombinant C-terminal His-tagged LDHA (0.070 μg/mL) for 10 min at room temperature in assay buffer consisting 50 mM Tris, pH 7.5 and 100 mM NaCl in black walled, clear bottom, non-binding 96-well plates. Equal volumes of substrate solution containing 100 μM of pyruvate and 100 μM of NADH in assay buffer was added to each well (final concentration 0.035 μg/mL enzyme, 50 μM pyruvate, 50 μM NADH, and 1% DMSO). For human serum albumin (HSA) shift assay, the compounds were preincubated with the enzyme in assay buffer containing 20% HSA before substrate addition (final concentration 10% HSA). The reaction was monitored at 340 nm on a plate reader (Molecular Devices) in kinetic mode for 15 min. The rate of the reaction was determined by plotting absorbance vs time.

[2] = tested on: fresh primary mouse hepatocytes; test: Primary mouse hepatocyte assay (lactate production); assay type: cell-based
Protocol: Compounds were evaluated in an ex vivo assay consisting of fresh primary mouse hepatocytes. Hepatocytes were isolated from wild type mice (C57BL/6NCrl from Charles River Labs) using a two-step collagenase perfusion technique which involves a sequential perfusion of anesthetized mice with Hanks' balanced salt solution and collagenase. Following isolation, viable wild type hepatocytes (0.1 M cells/well) were incubated with test compound in presence of pyruvate and compound potency was evaluated by measuring the lactate produced by the cells using liquid chromatography coupled to mass spectrometry. Chromatographic separation was achieved on an XDB-C18 4.6×50 mm column (Agilent, Cat #927975-902) at a flow rate of 1 mL/min Mobile phase A consisted of 0.1% formic acid in water and mobile phase B consisted of acetonitrile. A gradient program was initiated starting at 5% B which was held for 1 minutes, then ramped from 5% to 95% B over 1 minute. After holding at 95% B for 1 minute, the program changed back to 5% B. The column was equilibrated with 5% B for […] before the next injection. The mass spectrometer was operated in negative mode with electrospray ionization. The following transition along with their collision energy (CE) were used: 89→43 (CE: −16 V) for lactate and 92→45 (CE: −16 V) for ^13C3-Lactate (internal standard).

[3] = biological target: T1, human recombinant C-terminal His-tagged LDHA; test: Human LDHA enzyme assay, human serum albumin (HSA) shift; assay type: biochemical; settings: final concentration 10% HSA
Protocol: as §1

[4] = Liver and plasma concentrations in c57/bl6 mice; assay type: in vivo; settings: 20 mg/kg PO
Protocol: [The procedure below names another organism; the source says it served here with some conditions changed.] (§2) Plasma and liver (target organ) concentrations of test compounds were determined in rats following a single per os (PO) administration of the test compounds. Male Sprague Dawley rats (6-8 weeks of age, Charles River Labs) were fasted overnight and a single dose of test compounds (10 mg/kg; as a suspension in 0.5% methyl cellulose) was administered by PO gavage. Rats were then sacrificed at 4 and 24 h after administration of the test compounds, and plasma and liver tissue samples were collected. Liver tissue samples were homogenized in 5 volumes of water:acetonitrile (50/50; v/v) mixture using a bead mill homogenizer. Plasma and liver homogenate samples were processed by protein precipitation using acetonitrile and the concentrations of the test compounds were determined by liquid chromatography-tandem mass spectrometry (SciEx triple quad 5500+ with Exion UPLC).
(§3) Liver and plasma exposures at the 4 h and 24 h timepoints for the various compounds are described in Table 5 below. Measured compound concentrations are as follows: ++++>10 μM; 10 μM≥+++>5 μM; 5 μM≥++>1 μM; 1 μM≥+>0.25 μM; and 0.25 μM≥−.

[5] = Liver-targeted tissue distribution profile study in rats; assay type: in vivo, Sprague Dawley rats; settings: rat, single 10 mg/kg PO
Protocol: as §2, §3

[6] = Run at 0.4M cells/well concentration of hepatocytes

IC50 [1] | IC50 [3] | Measured Compound Concentrations Liver - 4 h [4] | Measured Compound Concentrations Plasma - 4 h [4] | Measured Compound Concentrations Liver - 24 h [4] | Measured Compound Concentrations Plasma - 24 h [4] | Measured Compound Concentrations Liver - 4 h ([5]; liver, 4 h) | Measured Compound Concentrations Liver - 24 h ([5]; liver, 24 h) | Measured Compound Concentrations Plasma - 4 h ([5]; plasma, 4 h) | Measured Compound Concentrations Plasma - 24 h ([5]; plasma, 24 h) | SMILES | lowering of urinary oxalate (PH1 patients) | IC50 [2, 6] | IC50 ([2]; 0.1 M cells/well)
< 1 nM | 1 to 10 nM | ++* (5 μM≥++>1 μM) | −* (0.25 μM≥−) |  |  |  |  |  |  | CC(C)Oc1cc(-c2nn(-c3nc(C(=O)O)cs3)c(CC3CC3)c2Cc2ccc(S(N)(=O)=O)c(F)c2)ccc1F [Example 7, 2-(5-(Cyclopropylmethyl)-3-(4-fluoro-3-isopropoxyphenyl)-4-(3-fluoro-4-sulfamoylbenzyl)-1H-pyrazol-1-yl)thiazole-4-carboxylic acid] |  | 250 to 1000 nM | 
< 1 nM | 10 to 100 nM | +++* (10 μM≥+++>5 μM) | −* (0.25 μM≥−) | −* (0.25 μM≥−) | −* (0.25 μM≥−) |  |  |  |  | NS(=O)(=O)c1ccc(Cc2c(-c3ccc(F)cc3)nn(-c3nc(C(=O)O)cs3)c2CC2CC2)cc1Cl [Example 10, 2-(4-(3-Chloro-4-sulfamoylbenzyl)-5-(cyclopropylmethyl)-3-(4-fluorophenyl)-1H-pyrazol-1-yl)thiazole-4-carboxylic acid] |  |  | 100 to 250 nM
< 1 nM | 1 to 10 nM | ++* (5 μM≥++>1 μM) | −* (0.25 μM≥−) | −* (0.25 μM≥−) | −* (0.25 μM≥−) |  |  |  |  | NS(=O)(=O)c1ccc(Cc2c(-c3ccc(F)c(OC(F)F)c3)nn(-c3nc(C(=O)O)cs3)c2CC2CC2)cc1F [Example 13, 2-(5-(cyclopropylmethyl)-3-(3-(difluoromethoxy)-4-fluorophenyl)-4-(3-fluoro-4-sulfamoylbenzyl)-1H-pyrazol-1-yl)thiazole-4-carboxylic acid] |  | 250 to 1000 nM | 
< 1 nM | 10 to 100 nM |  |  |  |  | ++ (5 μM≥++>1 μM) | − (0.25 μM≥−) | − (0.25 μM≥−) | − (0.25 μM≥−) | NS(=O)(=O)c1ccc(Cc2c(-c3ccc(Cl)cc3)nn(-c3nc(C(=O)O)cs3)c2CC2CC2)cc1F [Example 16, 2-(3-(4-chlorophenyl)-5-(cyclopropylmethyl)-4-(3-fluoro-4-sulfamoylbenzyl)-1H-pyrazol-1-yl)thiazole-4-carboxylic acid] |  | < 100 nM | 

Second part, the compound before the results:

SMILES | IC50 [1] | IC50 [3] | Measured Compound Concentrations Liver - 4 h [4] | Measured Compound Concentrations Plasma - 4 h [4] | Measured Compound Concentrations Liver - 24 h [4] | Measured Compound Concentrations Plasma - 24 h [4] | Measured Compound Concentrations Liver - 4 h ([5]; liver, 4 h) | Measured Compound Concentrations Liver - 24 h ([5]; liver, 24 h) | Measured Compound Concentrations Plasma - 4 h ([5]; plasma, 4 h) | Measured Compound Concentrations Plasma - 24 h ([5]; plasma, 24 h) | lowering of urinary oxalate (PH1 patients) | IC50 [2, 6] | IC50 ([2]; 0.1 M cells/well)
Cc1ncc(CO)c(CO)c1O [Pyridoxine] |  |  |  |  |  |  |  |  |  |  | approximately 30% |  | 
NS(=O)(=O)c1ccc(Cc2c(-c3ccc(F)cc3)nn(-c3nc(C(=O)O)cs3)c2CCC2CC2)cc1 [Example 6, 2-(5-(2-cyclopropylethyl)-3-(4-fluorophenyl)-4-(4-sulfamoylbenzyl)-1H-pyrazol-1-yl)thiazole-4-carboxylic acid] | < 1 nM | 10 to 100 nM | ++* (5 μM≥++>1 μM) | −* (0.25 μM≥−) |  |  |  |  |  |  |  | 250 to 1000 nM | 
NS(=O)(=O)c1ccc(Cc2c(-c3ccc(F)cc3)nn(-c3nc(C(=O)O)cs3)c2CC2CC2)cc1 [Example 5, 2-(5-(cyclopropylmethyl)-3-(4-fluorophenyl)-4-(4-sulfamoylbenzyl)-1H-pyrazol-1-yl)thiazole-4-carboxylic acid] | < 1 nM | 1 to 10 nM | ++* (5 μM≥++>1 μM) | −* (0.25 μM≥−) |  |  |  |  |  |  |  | 250 to 1000 nM | 
CCc1c(Cc2ccc(S(N)(=O)=O)cc2)c(-c2ccc(F)cc2)nn1-c1nc(C(=O)O)cs1 [Example 4, 2-(5-ethyl-3-(4-fluorophenyl)-4-(4-sulfamoylbenzyl)-1H-pyrazol-1-yl)thiazole-4-carboxylic acid] | 1 to 10 nM | 10 to 100 nM | ++* (5 μM≥++>1 μM) | −* (0.25 μM≥−) |  |  |  |  |  |  |  | 250 to 1000 nM | 
Cc1c(Cc2ccc(S(N)(=O)=O)c(F)c2)c(-c2ccc(F)cc2)nn1-c1nc(C(=O)O)cs1 [Example 3, 2-(4-(3-Fluoro-4-sulfamoylbenzyl)-3-(4-fluorophenyl)-5-methyl-1H-pyrazol-1-yl)thiazole-4-carboxylic acid] | < 1 nM | 1 to 10 nM | ++++* (++++>10 μM) | −* (0.25 μM≥−) |  |  |  |  |  |  |  | 250 to 1000 nM | 
